Results taken from patent publication US11970439B1, “8-(4-chlorobenzylideneamino)naphthalene-1,3-disulfonic acid as an antioxidant compound” (KING FAISAL UNIVERSITY, priority 2023, dated 2024).

Experiment: DPPH radical scavenging antioxidant test
Assay type: biochemical
Settings: 517 nm; for Inhibition (radical scavenging inhibition): compound 3 μM in ethanol, 0.2 mL DPPH (0.75 mM), 30 min incubation in the dark
Procedure: The antioxidant properties of the 8-(4-chlorobenzylideneamino)naphthalene-1,3-disulfonic acid were studied by adding 0.2 mL DPPH (0.75 mM)) to compound 8-(4-chlorobenzylideneamino)naphthalene-1,3-disulfonic acid (III) (3 μM) in ethanol. After 30 min of incubation in the dark, the absorbance was read against a blank at 517 nm. Ascorbic acid (vitamin C) was used as standard antioxidants (positive control). A blank sample was prepared by 0.2 ml of DPPH in 3 ml ethanol. A negative control sample was run using ethanol instead of the sample. The radical scavenging inhibition was calculated using the following equation: […]

Row | Compound | antioxidant potential in DPPH in vitro test (in words) (DPPH, vitamin C as positive control) | Inhibition (radical scavenging inhibition) [%]
1 | O=S(=O)(O)c1cc(S(=O)(=O)O)c2c(/N=C/c3ccc(Cl)cc3)cccc2c1 [Product III, 8-(4-chlorobenzylideneamino)naphthalene-1,3-disulfonic acid] | high potential as an antioxidant compared to vitamin C | 50
2 | O=C1O[C@H]([C@@H](O)CO)C(O)=C1O [vit c, Ascorbic acid, reference compound] |  | 74
